# In patent publication US20060111305A1, “Metabolites of certain [1,4]diazepino[6,7,1-ij]quinoline derivatives and methods of preparation and use thereof” (Wyeth, priority 2004, published 2006):
# Where “and” joins values, the source holds several entries; their conditions need not be identical. Equal values may be shown once. Read-outs that look alike come from different tables or passages of the source.
# How the values were obtained:
# [1] = Incubation of [14C]DCDQ in rat fecal homogenate (stability); type: in vitro ADME; details: 37° C. for 24 hours
# Protocol: Fecal elimination accounted for 21.1±2.1% of the dosed radioactivity recovered in the first 24 hours post-dosing for male rats. Extraction efficiency for the 8-24 hour fecal samples was 64.3%, while an average of 89.5% of the radioactivity was extracted from incubations of [^14C]DCDQ in control fecal homogenate. […] Metabolite profiles were not obtained from the 0-8 hour fecal samples because of low radioactivity (less than 0.1% of dosed radioactivity).
# [2] = rats, previous mass balance study, oral dose; cited from earlier work
# [3] = dog, enteric-coated capsule, mass balance study; cited from earlier work
# [4] = Concentrations of DCDQ and DCDQ carbamoyl glucuronide (M6) in human plasma, LC/SRM (Table 34); type: in vivo, healthy human subjects; details: for concentration at 6 h / concentration at 12 h / concentration at 24 h: human, oral, read-out: M6 concentration in plasma; for concentration at 6 h / concentration at 12 h / concentration at 24 h / M6 to DCDQ Ratios / M6 concentration in plasma: plasma
# Protocol: Drug administration and specimen collection were performed in a randomized, double-blinded, placebo-controlled, ascending single dose study of the safety, tolerability, pharmacokinetics, and pharmacodynamics of DCDQ administered orally to healthy subjects and subjects with schizophrenia and schizoaffective disorder. The specimens were stored at approximately −70° C. until analysis for metabolite profiles and for ratios of carbamoyl glucuronide (M6) to DCDQ.
# Plasma samples from fasted subjects 25, 28 and 30 in the 50 mg single dose group, fasted subjects 50, 51, 54 in the 200 mg single dose group, fasted subjects 74, 76, 79 in the 300 mg single dose group, fed subjects 83, 84, 86 in the 300 mg single dose group and fasted subjects 92, 94, 96 in the 500 mg single dose group were analyzed for DCDQ carbamoyl glucuronide (M6) concentrations. The internal standard d8-DCDQ (25 μL of 200 ng/mL methanol solution) was added to 100 μL of the plasma samples, followed by the addition of 300 μL of acetonitrile. The samples were mixed and centrifuged at 14000 rpm in an Eppendorf 5415C centrifuge (Brinkman Instruments Inc., Westbury, N.Y.) for 10 minutes. The supernatant of each sample was transferred to a clean tube and evaporated to dryness under a stream of nitrogen in a TurboVap LV evaporator (Caliper Life Sciences, Hopkinton, Mass.). The residue was reconstituted with 50 μL of methanol followed by the addition of 150 μL of water. The sample was mixed and centrifuged as described above. The supernatant was analyzed by LC/MS/MS analysis. Samples for standard curves were prepared with control plasma spiked with synthetic M6. The concentrations of M6 used for the standard curve ranged from 0 to 2500 ng/mL plasma.
# LC/MS System 3 was used for semi-quantitative analysis of metabolite M6 (DCDQ carbamoyl glucuronide) in plasma and urine samples. The HPLC equipment for this LC/MS System consisted of a Thermo Surveyor HPLC (Thermo Electron Corp., San Jose, Calif.), including a Surveyor MS pump and autosampler. Separations were accomplished on a 5 micron Phenomenex Luna C18(2) column, 150×2 mm (Phenomenex, Torrance, Calif.). The autosampler and column temperatures were set at 5° C. and 40° C., respectively. The HPLC mobile phase consisted of 10 mM ammonium acetate (A) and methanol (B), and was delivered at 0.2 mL/min. The linear mobile phase gradient (HPLC Gradient 2) is shown below. During LC/MS sample analysis, up to 3 min of the initial flow was diverted away from the mass spectrometer prior to evaluation of metabolites.
# The mass spectrometer used for semi-quantitative anslysis with LC/MS System 3 was a Finnigan TSQ Quantum triple quadrupole mass spectrometer (Thermo Electron Corp.). The mass spectrometer was equipped with an electrospray interface and operated in the positive ionization mode. Settings for this mass spectrometer are listed below.
# LC/MS/MS analysis in the selected reaction monitoring (SRM) mode (LC/SRM) was conducted for DCDQ and M6 using the following settings.
# The computer program Microsoft Excel® 97 was used to calculate means and standard deviations and to perform the student t-test. Xcalibur (version 1.3) and MassLynx software (version 4.0) were used for collection and analysis of LC/MS data. Peak area ratios of M6 to the internal standard were used for quantitation of M6 in plasma samples.
# [5] = 50 mg (fasted), 6 hr, individual subjects
# [6] = 50 mg (fasted), 12 hr, individual subjects
# [7] = 50 mg (fasted), 24 hr, individual subjects
# [8] = 200 mg (fasted), 6 hr, individual subjects
# [9] = 200 mg (fasted), 12 hr, individual subjects
# [10] = 200 mg (fasted), 24 hr, individual subjects
# [11] = 300 mg (fasted), 6 hr, individual subjects
# [12] = 300 mg (fasted), 12 hr, individual subjects
# [13] = 300 mg (fasted), 24 hr, individual subjects
# [14] = 300 mg (fed), 6 hr, individual subjects
# [15] = 300 mg (fed), 12 hr, individual subjects
smiles,measurement,setting,value
c1cc2c3c(c1)[C@H]1CCC[C@H]1CN3CCNC2 [[^14C]DCDQ],degradation in fecal homogenate,[1],no detectable degradation
same,dosed radioactivity recovered in urine,[2],64.3%
same,dose recovered in urine,[3],32.7%
"O=C(O)[C@H]1O[C@@H](OC(=O)N2CCN3C[C@@H]4CCC[C@@H]4c4cccc(c43)C2)[C@H](O)[C@@H](O)[C@@H]1O [Metabolite M6, carbamoyl glucuronide of DCDQ]",differences in M6 concentrations and M6 to DCDQ ratios between fasted and fed subjects,[4]; 300 mg of DCDQ,no statistically significant differences
same,concentration at 6 h,"[4]; 50 mg, 50 mg (fasted), 6 hr, Mean ± S.D.",114 ± 26.9 ng/mL
same,concentration at 6 h,"[4]; 50 mg, 50 mg (fasted), 6 hr, individual subjects",127 ng/mL
same,concentration at 12 h,"[4]; 50 mg, 50 mg (fasted), 12 hr, Mean ± S.D.",12.4 ± 5 ng/mL
same,concentration at 24 h,"[4]; 50 mg, 50 mg (fasted), 24 hr, Mean (standard deviation not calculated)",3.35 ng/mL
same,concentration at 24 h,"[4]; 50 mg, 50 mg (fasted), 24 hr, individual subjects",3.1 ng/mL
same,concentration at 6 h,"[4]; 200 mg, 200 mg (fasted), 6 hr, Mean ± S.D.",352 ± 228 ng/mL
same,concentration at 12 h,"[4]; 200 mg, 200 mg (fasted), 12 hr, Mean ± S.D.",43.6 ± 17.1 ng/mL
same,concentration at 24 h,"[4]; 200 mg, 200 mg (fasted), 24 hr, Mean ± S.D.",7.67 ± 2.5 ng/mL
same,concentration at 24 h,"[4]; 200 mg, 200 mg (fasted), 24 hr, individual subjects",4.8 ng/mL
same,concentration at 6 h,"[4]; 300 mg, 300 mg (fasted), 6 hr, Mean ± S.D.",237 ± 108 ng/mL
same,concentration at 12 h,"[4]; 300 mg, 300 mg (fasted), 12 hr, Mean ± S.D.",88.7 ± 51.8 ng/mL
same,concentration at 24 h,"[4]; 300 mg, 300 mg (fasted), 24 hr, Mean ± S.D.",28.9 ± 18.4 ng/mL
same,concentration at 6 h,"[4]; 300 mg, 300 mg (fed), 6 hr, Mean ± S.D.",579 ± 354 ng/mL
same,concentration at 12 h,"[4]; 300 mg, 300 mg (fed), 12 hr, Mean ± S.D.",286 ± 251 ng/mL
same,concentration at 24 h,"[4]; 300 mg, 300 mg (fed), 24 hr, Mean ± S.D.",59 ± 75.9 ng/mL
same,concentration at 6 h,"[4]; 500 mg, 500 mg (fasted), 6 hr, Mean ± S.D.",1020 ± 444 ng/mL
same,concentration at 12 h,"[4]; 500 mg, 500 mg (fasted), 12 hr, Mean ± S.D.",178 ± 30.1 ng/mL
same,concentration at 12 h,"[4]; 500 mg, 500 mg (fasted), 12 hr, individual subjects",146 ng/mL
same,concentration at 24 h,"[4]; 500 mg, 500 mg (fasted), 24 hr, Mean ± S.D.",49.6 ± 32.6 ng/mL
same,M6 to DCDQ Ratios,"[4]; 50 mg (fasted), 6 hr, Mean ± S.D.",74.3 ± 59.6
same,M6 concentration in plasma,[4]; [5],132 ng/mL and 83.1 ng/mL
same,M6 to DCDQ Ratios,[4]; [5],141 and 26.4
same,M6 to DCDQ Ratios,"[4]; 50 mg (fasted), 12 hr, Mean ± S.D.",14.8 ± 7.87
same,M6 concentration in plasma,[4]; [6],15.1 ng/mL and 6.60 ng/mL and 15.4 ng/mL
same,M6 to DCDQ Ratios,[4]; [6],21.6 and 16.5 and 6.16
same,M6 to DCDQ Ratios,"[4]; 50 mg (fasted), 24 hr, Mean (standard deviation not calculated)",10.8
same,M6 concentration in plasma,[4]; [7],3.6 ng/mL
same,M6 to DCDQ Ratios,[4]; [7],15.5 and 6.00
same,M6 to DCDQ Ratios,"[4]; 200 mg (fasted), 6 hr, Mean ± S.D.",45.2 ± 34.0
same,M6 concentration in plasma,[4]; [8],225 ng/mL and 615 ng/mL and 216 ng/mL
same,M6 to DCDQ Ratios,[4]; [8],83.3 and 34.2 and 18.0
same,M6 to DCDQ Ratios,"[4]; 200 mg (fasted), 12 hr, Mean ± S.D.",14.3 ± 14.8
same,M6 concentration in plasma,[4]; [9],37.5 ng/mL and 62.9 ng/mL and 30.3 ng/mL
same,M6 to DCDQ Ratios,[4]; [9],31.3 and 6.84 and 4.73
same,M6 to DCDQ Ratios,"[4]; 200 mg (fasted), 24 hr, Mean ± S.D.",8.42 ± 6.68
same,M6 concentration in plasma,[4]; [10],8.8 ng/mL and 9.4 ng/mL
same,M6 to DCDQ Ratios,[4]; [10],16.0 and 3.38 and 5.88
same,M6 to DCDQ Ratios,"[4]; 300 mg (fasted), 6 hr, Mean ± S.D.",46.1 ± 21.6
same,M6 concentration in plasma,[4]; [11],123 ng/mL and 249 ng/mL and 339 ng/mL
same,M6 to DCDQ Ratios,[4]; [11],58.9 and 58.3 and 21.2
same,M6 to DCDQ Ratios,"[4]; 300 mg (fasted), 12 hr, Mean ± S.D.",23.5 ± 5.10
same,M6 concentration in plasma,[4]; [12],43.0 ng/mL and 78.0 ng/mL and 145 ng/mL
same,M6 to DCDQ Ratios,[4]; [12],28.7 and 23.4 and 18.5
same,M6 to DCDQ Ratios,"[4]; 300 mg (fasted), 24 hr, Mean ± S.D.",24.1 ± 22.7
same,M6 concentration in plasma,[4]; [13],48.5 ng/mL and 12.0 ng/mL and 26.3 ng/mL
same,M6 to DCDQ Ratios,[4]; [13],49.9 and 6.98 and 15.5
same,M6 to DCDQ Ratios,"[4]; 300 mg (fed), 6 hr, Mean ± S.D.",76.6 ± 54.9
same,M6 concentration in plasma,[4]; [14],860 ng/mL and 696 ng/mL and 182 ng/mL
same,M6 to DCDQ Ratios,[4]; [14],45.3 and 44.6 and 140
same,M6 concentration in plasma,[4]; [15],279 ng/mL and 38.1 ng/mL and 540 ng/mL
same,M6 to DCDQ Ratios,[4]; [15],25.6 and 4.73
same,M6 concentration in plasma,"[4]; 300 mg (fed), 24 hr, individual subjects",24.6 ng/mL and 6.40 ng/mL and 146 ng/mL
same,M6 concentration in plasma,"[4]; 500 mg (fasted), 6 hr, individual subjects",1324 ng/mL and 508 ng/mL and 1221 ng/mL
same,M6 concentration in plasma,"[4]; 500 mg (fasted), 12 hr, individual subjects",181 ng/mL and 206 ng/mL
same,M6 concentration in plasma,"[4]; 500 mg (fasted), 24 hr, individual subjects",58.3 ng/mL and 13.5 ng/mL and 77.0 ng/mL
